Literature values as cited in paper PMC3160894, “Isolation and Characterization of CvIV4: A Pain Inducing α- Scorpion Toxin” (PLoS ONE, 2011).

Tested on: Nav1.7
Conditions: ref [19], [20]
Description: Given that buthid scorpions produce toxins that bind Na^+ channels in excitable membranes, it is plausible that their venom induces pain by initiating action potentials in nociceptors. Because some human pain disorders involve Na^+ channels expressed in nociceptors, [15], there has been an effort, albeit limited, to determine the components in buthid venom that induce pain with the goal of isolating peptides that discriminate among the DRG-expressed VGSCs. […] Because β-toxins make Na^+ channel ... || CvIV4 also slowed the fast inactivation and produced a persistent Na^+ current in rNav1.2, rNav1.3 and rNav1.4. […] Given that CvIV4 and CeII8 are similar in structure but differ in function and isoform selectivity, a comparison of these two toxins should improve our understanding of the structural characteristics that determine New World scorpion toxin selectivity and function.

| Substance | Effect on fast inactivation of Nav1.7 |
| --- | --- |
| LqhIII: α-toxin from Leiurus quinquestriatus hebraeus; GenBank P59355 | slow the fast inactivation of Nav1.7 |
| ODI: α-toxin from Odonthobuthus doriae; GenBank P84646 | slow the fast inactivation of Nav1.7 |
| AahII: α-toxin from Androctonus australis Hector; GenBank P01484 | slow the fast inactivation of Nav1.7 |
